Holding throughout (test): NCI-60 cell line screen, 48 h
Assay [1] concerns MDA-MB-435.
Assay [2] deals with HCT-15 colon.
Assay [3] relates to RXF 393 renal.
Assay [4] concerns UACC-257 melanoma.
Assay [5] has as its system MDA-MB-231 breast.
The test system of assay [6] is HCT-116 colon.
Assay [7] concerns SNB-75 CNS.
Assay [8] deals with NCI-H522 lung.

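Interpolation was linear, between the two tested concentrations surrounding the appropriate level; five concentrations were tested over 48 hours in 96-well plates. Here, GI50 denotes the concentration required for 50% inhibition of growth. TGI: total growth inhibition.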

This note sets out measurements from PubChem BioAssay (NCI).

On to `O=C1OC(=O)c2c1cc1cc3c(cc1c2-c1ccc2c(c1)OCO2)OCO3`, for which the TGI in assay [1], in assay [2], in assay [3], in assay [4], in assay [5] and in assay [6] was > 100 µM each time. The TGI in assay [7] and in assay [8] was > 100 µM in each case.

On to `CN(C)Cc1c[nH]c2nc[nH]c(=O)c12`, for which the TGI was > 100 µM in assay [1]; > 100 µM in assay [2]; 45.9 µM in assay [3]; 52 µM in assay [4]; > 100 µM in assay [5]; 51.5 µM in assay [6]. Moreover, the TGI in assay [7] and in assay [8] was > 100 µM throughout.

For `O=C1C=CC(=O)N1c1ccc2ccccc2c1`, the GI50 in assay [1] is 16.9 µM; in assay [2], 16.5 µM; in assay [3] it was 3.98 µM; in assay [4], 10.5 µM; in assay [5] it was 16.1 µM; in assay [6], 3.93 µM. For the same compound, the results for the GI50 in assay [7] and in assay [8] were 16.6 µM and 1.74 µM, respectively. In addition, the TGI in assay [1] worked out at 32.2 µM; in assay [2], 33.1 µM; in assay [3], 12.9 µM; in assay [4], 22.7 µM; in assay [5], 33 µM; in assay [6], 12.4 µM. In addition, the results for the TGI in assay [7] and in assay [8] were 38.4 µM and 3.42 µM, respectively.

Regarding `COc1cc(/C=C2\CC3C4CC=C5C[C@@H](N6CCCC6)CC[C@]5(C)C4CC[C@]3(C)[C@H]2OC(C)=O)ccc1OCCCn1ccnc1` (stereo partly drawn), the GI50 was 0.912 µM in assay [1]; 0.135 µM in assay [2]; 0.704 µM in assay [3]; 2.29 µM in assay [4]; 0.404 µM in assay [5]; 0.0938 µM in assay [6]. The GI50 in assay [8] was 3.86 µM. The TGI was found to be 1.68 µM in assay [1]; 0.483 µM in assay [2]; 2.08 µM in assay [3]; 5.27 µM in assay [4]; 1.01 µM in assay [5]; 1.52 µM in assay [6]. The TGI in assay [8] was > 27.5 µM.

As for `O=c1oc2cc(O)ccc2cc1-c1nc2ccccc2o1`, the TGI in assay [1] is > 100 µM; in assay [2], > 100 µM; in assay [3], 35.5 µM; in assay [4], > 100 µM; in assay [5] it was > 100 µM; in assay [6], > 100 µM. Moreover, the values for the TGI in assay [7] and in assay [8] were > 100 µM and 56.1 µM, respectively.

Take `C=CC(=O)N1CCN(c2nc(OC[C@@H]3CCCN3C)nc3c(F)c(-c4nc(N)cc(C)c4C(F)(F)F)c(Cl)cc23)[C@@H](C)C1`: the GI50 in assay [1] was 2.09 µM; in assay [2], 1.7 µM; in assay [3] it was 1.07 µM; in assay [4], 1.57 µM; in assay [5], 1.74 µM; in assay [6], 2.04 µM. The results for the GI50 in assay [7] and in assay [8] were 1.22 µM and 1.21 µM, respectively. Further, the TGI in assay [1] amounted to 4.65 µM; in assay [2] it was 3.47 µM; in assay [3], 2.5 µM; in assay [4] it was 3 µM; in assay [5] it was 3.27 µM; in assay [6] it was 5.39 µM. Also, the TGI in assay [7] was found to be 2.74 µM; in assay [8], 2.75 µM.

Consider `O=C(/C=C/c1cccc(Cl)c1)c1ccccc1`, for which the GI50 in assay [1] is 2 µM; in assay [2] it was 4.22 µM; in assay [3], 12.2 µM; in assay [4] it was 15.1 µM; in assay [5] it was 12.2 µM; in assay [6], 1.44 µM. Moreover, the GI50 in assay [7] was 15.1 µM. Besides, the TGI is 5.43 µM in assay [1]; 22.7 µM in assay [2]; 24.8 µM in assay [3]; 29 µM in assay [4]; 28.5 µM in assay [5]; 2.97 µM in assay [6]. The same compound gave a TGI in assay [7] of 28.6 µM.

`CC(C)(C)c1ccc(OCCCCCCCN2CCNCC2)cc1`: the GI50 in assay [1] is 1.57 µM; in assay [2], 1.64 µM; in assay [3], 1.69 µM; in assay [4], 1.98 µM; in assay [5] it was 1.31 µM; in assay [7], 1.57 µM. The TGI in assay [1] is 2.98 µM; in assay [2], 3.38 µM; in assay [3] it was 3.37 µM; in assay [4] it was 3.8 µM; in assay [5] it was 3.02 µM; in assay [7], 3.74 µM.

Consider `Cc1cc(N)c2cc(NC(=O)/C=C\c3ccccc3Cl)ccc2n1`, for which the GI50 in assay [1] was 1.15 µM; in assay [2], 1.77 µM; in assay [3], 1.45 µM; in assay [4], 1.76 µM; in assay [5], 1.21 µM; in assay [6], 0.208 µM. For the same compound, the GI50 in assay [7] was 1.7 µM; in assay [8], 1.71 µM. Also, the TGI in assay [1] is 2.52 µM; in assay [2], 3.27 µM; in assay [3], 2.91 µM; in assay [4], 3.23 µM; in assay [5] it was 2.47 µM; in assay [6], 0.416 µM. Moreover, the TGI turned out to be 3.21 µM in assay [7] and 3.29 µM in assay [8].

As to `O=C(Nc1cccc2[nH]c(C(F)(F)F)nc12)c1ccc(Br)cc1F`, the GI50 in assay [1] is 3.33 µM; in assay [2], 3.33 µM; in assay [3] it was 3.1 µM; in assay [4], 2.35 µM; in assay [5], 2.17 µM; in assay [6], 3.16 µM. Moreover, the GI50 in assay [7] is 2.68 µM; in assay [8], 2.55 µM. For the same compound, the TGI was determined as 12.1 µM in assay [1]; 14.1 µM in assay [2]; 9.12 µM in assay [3]; 6.67 µM in assay [4]; 6.19 µM in assay [5]; 11.4 µM in assay [6]. In addition, the TGI in assay [7] worked out at 18 µM; in assay [8] it was 8.26 µM.
